According to ChEMBL document CHEMBL3351912, “Influence of azide incorporation on binding affinity by small papain inhibitors” (Bioorg Med Chem, 2014):

Biological target: T1, Papain (Carica papaya, UniProt P00784)
T1 sequence (P00784 whole entry): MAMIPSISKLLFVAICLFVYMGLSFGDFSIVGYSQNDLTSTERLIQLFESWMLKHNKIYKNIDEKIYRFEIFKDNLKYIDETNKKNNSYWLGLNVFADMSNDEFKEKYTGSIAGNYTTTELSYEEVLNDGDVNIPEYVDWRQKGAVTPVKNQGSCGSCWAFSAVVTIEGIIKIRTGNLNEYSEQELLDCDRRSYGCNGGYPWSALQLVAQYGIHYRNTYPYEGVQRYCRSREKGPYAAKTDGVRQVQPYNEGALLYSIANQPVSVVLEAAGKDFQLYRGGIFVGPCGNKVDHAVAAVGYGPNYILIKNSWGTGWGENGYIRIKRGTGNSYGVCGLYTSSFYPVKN
Test: Inhibition of papaya papain using Z-Phe-Arg-pNA substrate by spectrophotometry

SMILES	IC50
N#CCNC(=O)[C@H](Cc1ccccc1)NC(=O)c1ccc(-c2ccccc2)cc1	220 nM
CC(C)C[C@H](NC(=O)c1ccc(CN=[N+]=[N-])cc1)C(=O)NCC#N	2270 nM
CCCC[C@H](NC(=O)c1ccc(CN=[N+]=[N-])cc1)C(=O)NCC#N	7100 nM
N#CCNC(=O)[C@H](Cc1ccccc1)NC(=O)c1ccc(CN=[N+]=[N-])cc1	270 nM
N#CCNC(=O)[C@H](Cc1ccc(O)cc1)NC(=O)c1ccc(CN=[N+]=[N-])cc1	280 nM
N#CCNC(=O)[C@H](CCc1ccccc1)NC(=O)c1ccc(CN=[N+]=[N-])cc1	710 nM
N#CCNC(=O)[C@H](CCc1ccc(O)cc1)NC(=O)c1ccc(CN=[N+]=[N-])cc1	980 nM
CC(C)C[C@H](NC(=O)c1ccc(-c2ccc(CN=[N+]=[N-])cc2)cc1)C(=O)NCC#N	1580 nM
N#CCNC(=O)[C@H](Cc1ccccc1)NC(=O)c1ccc(-c2ccc(CN=[N+]=[N-])cc2)cc1	13900 nM
N#CCNC(=O)[C@H](Cc1ccc(O)cc1)NC(=O)c1ccc(-c2ccc(CN=[N+]=[N-])cc2)cc1	51200 nM
CC(C)C[C@H](NC(=O)CN=[N+]=[N-])C(=O)N[C@@H](CC(C)C)C(=O)NCC#N	2710 nM
CC(C)C[C@H](NC(=O)CN=[N+]=[N-])C(=O)N[C@@H](Cc1ccccc1)C(=O)NCC#N	2250 nM
N#CCNC(=O)[C@H](Cc1ccccc1)NC(=O)[C@H](Cc1ccccc1)NC(=O)CN=[N+]=[N-]	3970 nM
N#CCNC(=O)[C@H](Cc1ccccc1)NC(=O)c1ccc(Cn2nnc3c2CC[C@H]2[C@@H](CC3)[C@H]2COC(=O)NCCOCCOCCN)cc1	350 nM
N#CCNC(=O)[C@H](Cc1ccccc1)NC(=O)c1ccc(Cn2nnc3c2-c2ccccc2CN(C(=O)CCCC(=O)NCCOCCOCCN)c2ccccc2-3)cc1	5980 nM
N#CCNC(=O)[C@H](Cc1ccccc1)NC(=O)c1ccccc1	360 nM
